Data from patent publication US7951804B2, “Piperidinyl compounds” (Merck Patent GmbH, priority 2003, dated 2011).
Structures can show the parent of a compound that is named as a salt.

Key:
TF/FVIIa = TF/FVIIa (Homo sapiens, UniProt P08709); assay: TF/factor VIIa inhibition (TF/FVIIa-IC50); format: biochemical
From the text: The inhibition of factor VIIa by the compounds according to the invention and the measurement of the anticoagulant and antithrombotic activity can be determined by conventional in-vitro or in-vivo methods. A conventional method for the measurement of the inhibition of factor Vila is described, for example, by H. F. Ronning et al. in Thrombosis Research 1996, 84, 73-81.

FXa = FXa (Homo sapiens, UniProt P00742); assay: Factor Xa inhibition (FXa-IC50); format: biochemical
Sequence of FXa (P00742 235-488 limits assumed): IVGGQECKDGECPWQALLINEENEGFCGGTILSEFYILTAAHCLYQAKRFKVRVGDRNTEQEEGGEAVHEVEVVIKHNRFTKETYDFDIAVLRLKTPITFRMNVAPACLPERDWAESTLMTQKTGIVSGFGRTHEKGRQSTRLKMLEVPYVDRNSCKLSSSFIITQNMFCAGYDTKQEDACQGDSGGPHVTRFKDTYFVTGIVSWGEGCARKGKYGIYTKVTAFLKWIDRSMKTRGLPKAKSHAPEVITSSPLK
Sequence of FXa (P00742 41-179 partner limits assumed): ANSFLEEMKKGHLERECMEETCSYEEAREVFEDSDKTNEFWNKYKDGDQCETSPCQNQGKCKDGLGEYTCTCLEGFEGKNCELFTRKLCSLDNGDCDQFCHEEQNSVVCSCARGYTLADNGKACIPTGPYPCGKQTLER
From the text: The inhibition of factor Xa by the compounds according to the invention and the measurement of the anticoagulant and antithrombotic activity can be determined by conventional in-vitro or in-vivo methods. A suitable method is described, for example, by J. Hauptmann et al. in Thrombosis and Haemostasis 1990, 63, 220-223.
The inhibition of factor Xa can be measured, for example, by the method of T. Hara et al. in Thromb. Haemostas. 1994, 71, 314-319.

Sequence of TF/FVIIa (P08709 213-466 limits assumed): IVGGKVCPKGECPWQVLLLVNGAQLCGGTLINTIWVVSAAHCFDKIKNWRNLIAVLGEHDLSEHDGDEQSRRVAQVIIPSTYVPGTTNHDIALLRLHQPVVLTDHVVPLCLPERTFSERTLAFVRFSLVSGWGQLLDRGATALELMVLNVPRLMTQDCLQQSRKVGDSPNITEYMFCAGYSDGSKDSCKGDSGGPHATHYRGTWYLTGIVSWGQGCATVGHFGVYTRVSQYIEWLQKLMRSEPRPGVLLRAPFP
Sequence of TF/FVIIa (P08709 61-212 partner limits assumed): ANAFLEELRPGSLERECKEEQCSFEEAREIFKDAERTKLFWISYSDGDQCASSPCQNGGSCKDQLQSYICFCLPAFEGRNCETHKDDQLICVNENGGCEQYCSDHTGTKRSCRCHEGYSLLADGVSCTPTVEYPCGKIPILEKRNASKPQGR
Sequence of TF/FVIIa (P13726 33-295 partner): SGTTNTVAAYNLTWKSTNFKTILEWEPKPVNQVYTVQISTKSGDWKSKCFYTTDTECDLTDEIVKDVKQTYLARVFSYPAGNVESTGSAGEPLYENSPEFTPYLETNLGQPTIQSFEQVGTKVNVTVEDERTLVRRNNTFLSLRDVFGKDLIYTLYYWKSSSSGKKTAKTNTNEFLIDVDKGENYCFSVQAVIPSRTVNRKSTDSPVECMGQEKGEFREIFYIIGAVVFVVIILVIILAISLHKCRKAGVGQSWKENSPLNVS

SMILES: CN1CCC(C2CCN(C(=O)[C@H](OC(=O)Nc3ccc(Cl)cc3)c3ccccc3)CC2)CC1 [Compound 49, 2-(1′-methyl-4,4′-bipiperidinyl-1-yl)-2-oxo-1-phenylethyl (R)-4-chlorophenyl)carbamate trifluoroacetate]
- IC50 (TF/FVIIa): 15 nM
- IC50 (FXa): 11 nM

SMILES: CN1CCC(N2CCN(C(=O)[C@H](NC(=O)Nc3ccc(Cl)cc3)c3ccccc3)CC2)CC1 [Compound 5, (R)-1-(4-chlorophenyl)-3-{2-[4-(1-methylpiperidin-4-yl)piperazin-1-yl]-2-oxo-1-phenylethyl}urea bistrifluoroacetate]
- IC50 (TF/FVIIa): 6.3 nM
- IC50 (FXa): 17 nM

SMILES: CN1CCC(C2CCN(C(=O)[C@H](NC(=O)Nc3ccc(Cl)cc3)c3ccccc3)CC2)CC1 [Compound 1, (R)-1-(4-chlorophenyl)-3-[2-(1′-methyl-4,4′-bipiperidinyl-1-yl)-2-oxo-1-phenylethyl]urea]
- IC50 (TF/FVIIa): 6.9 nM
- IC50 (FXa): 6 nM

SMILES: O=C(Nc1ccc(Cl)cc1)N[C@@H](C(=O)N1CCN(c2ccc(F)cc2)CC1)c1ccccc1 [Compound 2, (R)-1-(4-chlorophenyl)-3-{2-[4-(4-fluorophenyl)piperazin-1-yl]-2-oxo-1-phenylethyl}urea]
- IC50 (TF/FVIIa): 1700 nM
- IC50 (FXa): 670 nM
